Like-named read-outs stand apart in the source and are kept apart here.
Experiments:
Experiment in all cases: intrinsic tryptophan fluorescence quenching
Assay type in all cases: binding
[1] = biological target: T1, HucR (hypothetical uricase regulator), HucR-WT (Deinococcus radiodurans, UniProt Q9RV71)
T1 sequence (Q9RV71 1-181): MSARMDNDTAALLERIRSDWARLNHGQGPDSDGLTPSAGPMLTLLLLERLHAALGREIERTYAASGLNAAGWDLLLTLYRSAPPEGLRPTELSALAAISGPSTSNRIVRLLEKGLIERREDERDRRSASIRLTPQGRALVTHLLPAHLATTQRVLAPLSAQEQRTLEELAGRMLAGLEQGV

[2] = biological target: T2, HucR-E48Q (Deinococcus radiodurans, UniProt Q9RV71, E48Q)
[3] = biological target: T3, HucR-H51F (Deinococcus radiodurans, UniProt Q9RV71, H51F)
[4] = biological target: T1, HucR (hypothetical uricase regulator), HucR-WT; remark: listed apart in the source
[5] = biological target: T2, HucR-E48Q; remark: listed apart in the source
[6] = biological target: T3, HucR-H51F; remark: listed apart in the source

## O=c1[nH]c(=O)c2[nH]c(=O)[nH]c2[nH]1 [urate]
[1]
  Kd: 11.4 ± 2.9 µM
[2]
  Kd: 2.2 ± 0.8 µM
[3]
  Kd: 14.7 ± 1.2 µM

## O=c1[nH]c(=O)c2[nH]cnc2[nH]1 [xanthine]
[4]
  Kd: ~17 µM
[5]
  Kd: ~17 µM
[6]
  Kd: ~17 µM

Source: paper PMC4955742 (Molecular bioSystems, 2016)
